In ChEMBL document CHEMBL1287680, “C-11 diamino cryptolepine derivatives NSC748392, NSC748393, and NSC748394: anticancer profile and G-quadruplex stabilization” (Bioorg Med Chem Lett, 2010):

Legend:
[1] = test system: MCF7; test: cells; conditions: Homo sapiens
Description: Anticancer activity against human MCF7 cells

[2] = test system: UO-31; test: cells; conditions: Homo sapiens
Description: Anticancer activity against human UO31 cells

[3] = test system: KM12; test: cells; conditions: Homo sapiens
Description: Anticancer activity against human KM12 cells

[4] = test system: HT-29; test: cells; conditions: Homo sapiens
Description: Anticancer activity against human HT-29 cells

[5] = test system: SK-MEL-28; test: cells; conditions: Homo sapiens
Description: Anticancer activity against human SK-MEL-28 cells

[6] = test system: RXF 393; test: cells; conditions: Homo sapiens
Description: Anticancer activity against human RXF393 cells

[7] = test system: HCT-15; test: cells; conditions: Homo sapiens
Description: Anticancer activity against human HCT15 cells

[8] = test system: K562; test: cells; conditions: Homo sapiens
Description: Anticancer activity against human K562 cells

[9] = test system: CAKI-1; test: cells; conditions: Homo sapiens
Description: Anticancer activity against human Caki1 cells

[10] = test system: BT-549; test: cells; conditions: Homo sapiens
Description: Anticancer activity against human BT549 cells

[11] = test system: COLO 205; test: cells; conditions: Homo sapiens
Description: Anticancer activity against human COLO205 cells

[12] = test system: OVCAR-8; test: cells; conditions: Homo sapiens
Description: Anticancer activity against human OVCAR8 cells

[13] = test system: A549; test: cells; conditions: Homo sapiens
Description: Anticancer activity against human A549 cells

[14] = test system: HCT-116; test: cells; conditions: Homo sapiens
Description: Anticancer activity against human HCT116 cells

[15] = physchem
Description: Dissociation constant, pKa of the compound by UV-visible spectroscopy

[16] = test system: NCI-H226; test: cells; conditions: Homo sapiens
Description: Anticancer activity against human NCI-H226 cells

[17] = test system: SK-MEL-5; test: cells; conditions: Homo sapiens
Description: Anticancer activity against human SK-MEL-5 cells

[18] = test system: NCI-H522; test: cells; conditions: Homo sapiens
Description: Anticancer activity against human NCI-H522 cells

[19] = test system: SN12C; test: cells; conditions: Homo sapiens
Description: Anticancer activity against human SN12C cells

[20] = test system: Vero; test: cells; conditions: Chlorocebus sabaeus, 48 h
Description: Cytotoxicity against african green monkey Vero cells after 48 hrs by MTT assay

[21] = test system: 786-0; test: cells; conditions: Homo sapiens
Description: Anticancer activity against human 786-0 cells

[22] = test system: NCI-H460; test: cells; conditions: Homo sapiens
Description: Anticancer activity against human NCI-H460 cells

[23] = test system: SW-620; test: cells; conditions: Homo sapiens
Description: Anticancer activity against human SW620 cells

[24] = test system: DU-145; test: cells; conditions: Homo sapiens
Description: Anticancer activity against human DU145 cells

[25] = test system: NCI-H322M; test: cells; conditions: Homo sapiens
Description: Anticancer activity against human NCI-H322M cells

[26] = test system: OVCAR-5; test: cells; conditions: Homo sapiens
Description: Anticancer activity against human OVCAR5 cells

[27] = test system: T47D; test: cells; conditions: Homo sapiens
Description: Anticancer activity against human T47D cells

[28] = test system: ACHN; test: cells; conditions: Homo sapiens
Description: Anticancer activity against human ACHN cells

[29] = cells; conditions: Homo sapiens
Description: Anticancer activity against human RPMI8266 cells

[30] = test system: HCC 2998; test: cells; conditions: Homo sapiens
Description: Anticancer activity against human HCC2998 cells

Structure (SMILES): CCN(CC)CCCCNc1c2ccccc2[n+](C)c2c1[nH]c1ccccc12.[Cl-]
- GI50 ([1]; MCF7, read-out: pGI50 (converted)): 224 nM
- CC50 ([1]; MCF7, read-out: pLC50 (converted)): > 36300 nM
- TGI ([1]; MCF7, read-out: pTGI): 794 nM
- GI50 ([2]; UO-31, read-out: pGI50 (converted)): 2400 nM
- CC50 ([2]; UO-31, read-out: pLC50 (converted)): > 100000 nM
- TGI ([2]; UO-31, read-out: pTGI): 25700 nM
- GI50 ([3]; KM12, read-out: pGI50 (converted)): 372 nM
- CC50 ([3]; KM12, read-out: pLC50 (converted)): 70800 nM
- TGI ([3]; KM12, read-out: pTGI): 4470 nM
- GI50 ([4]; HT-29, read-out: pGI50 (converted)): 251 nM
- CC50 ([4]; HT-29, read-out: pLC50 (converted)): > 100000 nM
- TGI ([4]; HT-29, read-out: pTGI): 1910 nM
- GI50 ([5]; SK-MEL-28, read-out: pGI50 (converted)): 186 nM
- CC50 ([5]; SK-MEL-28, read-out: pLC50 (converted)): 1740 nM
- TGI ([5]; SK-MEL-28, read-out: pTGI): 490 nM
- GI50 ([6]; RXF 393, read-out: pGI50 (converted)): 389 nM
- CC50 ([6]; RXF 393, read-out: pLC50 (converted)): 8130 nM
- TGI ([6]; RXF 393, read-out: pTGI): 1510 nM
- GI50 ([7]; HCT-15, read-out: pGI50 (converted)): 11500 nM
- CC50 ([7]; HCT-15, read-out: pLC50 (converted)): > 100000 nM
- TGI ([7]; HCT-15, read-out: pTGI): 49000 nM
- CC50 ([8]; K562, read-out: pLC50 (converted)): > 100000 nM
- TGI ([8]; K562, read-out: pTGI): > 100000 nM
- GI50 ([9]; CAKI-1, read-out: pGI50 (converted)): 6920 nM
- CC50 ([9]; CAKI-1, read-out: pLC50 (converted)): 100000 nM
- TGI ([9]; CAKI-1, read-out: pTGI): 32400 nM
- GI50 ([10]; BT-549, read-out: pGI50 (converted)): 1380 nM
- CC50 ([10]; BT-549, read-out: pLC50 (converted)): 7940 nM
- TGI ([10]; BT-549, read-out: pTGI): 3310 nM
- GI50 ([11]; COLO 205, read-out: pGI50 (converted)): 158 nM
- CC50 ([11]; COLO 205, read-out: pLC50 (converted)): 2950 nM
- TGI ([11]; COLO 205, read-out: pTGI): 676 nM
- GI50 ([12]; OVCAR-8, read-out: pGI50 (converted)): 617 nM
- CC50 ([12]; OVCAR-8, read-out: pLC50 (converted)): > 100000 nM
- TGI ([12]; OVCAR-8, read-out: pTGI): 10200 nM
- GI50 ([13]; A549, read-out: pGI50 (converted)): 52.5 nM
- CC50 ([13]; A549, read-out: pLC50 (converted)): > 100000 nM
- TGI ([13]; A549, read-out: pTGI): 15500 nM
- GI50 ([14]; HCT-116, read-out: pGI50 (converted)): 331 nM
- CC50 ([14]; HCT-116, read-out: pLC50 (converted)): > 100000 nM
- TGI ([14]; HCT-116, read-out: pTGI): 3800 nM
- pKa [15]: 11.6
- GI50 ([16]; NCI-H226, read-out: pGI50 (converted)): 166 nM
- CC50 ([16]; NCI-H226, read-out: pLC50 (converted)): > 100000 nM
- TGI ([16]; NCI-H226, read-out: pTGI): 676 nM
- GI50 ([17]; SK-MEL-5, read-out: pGI50 (converted)): 219 nM
- CC50 ([17]; SK-MEL-5, read-out: pLC50 (converted)): 2240 nM
- TGI ([17]; SK-MEL-5, read-out: pTGI): 617 nM
- GI50 ([18]; NCI-H522, read-out: pGI50 (converted)): 148 nM
- CC50 ([18]; NCI-H522, read-out: pLC50 (converted)): 1820 nM
- TGI ([18]; NCI-H522, read-out: pTGI): 457 nM
- GI50 ([19]; read-out: pGI50 (converted)): 52.5 nM
- CC50 ([19]; read-out: pLC50 (converted)): > 72400 nM
- TGI ([19]; read-out: pTGI): 3240 nM
- IC50 [20]: 62000 nM
- GI50 ([21]; 786-0, read-out: pGI50 (converted)): 1910 nM
- CC50 ([21]; 786-0, read-out: pLC50 (converted)): 97700 nM
- TGI ([21]; 786-0, read-out: pTGI): 6760 nM
- GI50 ([22]; NCI-H460, read-out: pGI50 (converted)): 91.2 nM
- CC50 ([22]; NCI-H460, read-out: pLC50 (converted)): 52500 nM
- TGI ([22]; NCI-H460, read-out: pTGI): 1290 nM
- GI50 ([23]; SW-620, read-out: pGI50 (converted)): 339 nM
- CC50 ([23]; SW-620, read-out: pLC50 (converted)): > 100000 nM
- TGI ([23]; SW-620, read-out: pTGI): 5250 nM
- GI50 ([24]; DU-145, read-out: pGI50 (converted)): 170 nM
- CC50 ([24]; DU-145, read-out: pLC50 (converted)): 89100 nM
- TGI ([24]; DU-145, read-out: pTGI): 10000 nM
- GI50 ([25]; read-out: pGI50 (converted)): 275 nM
- CC50 ([25]; read-out: pLC50 (converted)): > 100000 nM
- TGI ([25]; read-out: pTGI): 2750 nM
- GI50 ([26]; OVCAR-5, read-out: pGI50 (converted)): 851 nM
- CC50 ([26]; OVCAR-5, read-out: pLC50 (converted)): > 100000 nM
- TGI ([26]; OVCAR-5, read-out: pTGI): 4170 nM
- GI50 ([27]; read-out: pGI50 (converted)): 129 nM
- CC50 ([27]; read-out: pLC50 (converted)): 25700 nM
- TGI ([27]; read-out: pTGI): 776 nM
- GI50 ([28]; read-out: pGI50 (converted)): 2950 nM
- CC50 ([28]; read-out: pLC50 (converted)): > 100000 nM
- TGI ([28]; read-out: pTGI): 22400 nM
- GI50 ([29]; RPMI8266, read-out: pGI50 (converted)): 288 nM
- CC50 ([29]; RPMI8266, read-out: pLC50 (converted)): > 100000 nM
- TGI ([29]; RPMI8266, read-out: pTGI): 1660 nM
- GI50 ([30]; HCC 2998, read-out: pGI50 (converted)): 269 nM
- CC50 ([30]; HCC 2998, read-out: pLC50 (converted)): 3630 nM
- TGI ([30]; HCC 2998, read-out: pTGI): 759 nM
